Results as given in patent publication US12287326B2, “Fluorescent turn-on chemosensors for detection of aluminum ion and azide” (Morgan State University, priority 2019, dated 2025).

Experiment: Fluorescence titration of sensors with Al^3+
Conditions: λex=510 nm, emission 585 nm
Description: All reagents and solvents were purchased as analytical-grade and used without further purification unless otherwise stated. Stock solutions of metal ions were prepared from their nitrate and chloride salts and anion species from their tetrabutylammonium salts. Distilled deionized water was used throughout the experiments. ^1H-NMR and 13C-NMR spectra were recorded using an Avance 400 MHz spectrometer (BRUKER® Billerica, Karlsruhe, Germany) with tetramethylsilane (TMS) as internal standard and deuterated chloroform (CDCl3) as solvent. NMR spectra were analyzed using MestReNova software (version 10, Mestrela Research, Feliciano Barrera-Bajo, Spain). The IR spectrum was obtained using FT-IR spectrometer (Shimadzu, IRAffinity-1S, Columbia, MD, USA). […] All UV-vis spectroscopy experiments were recorded using a Cary UV/vis spectrophotometer 5000 (VARIAN®, Walnut Creek, CA, USA). Fluorescence emission spectra experiments were measured using a Cary 60 series spectrometer (AGILENT® Walnut Creek, CA, USA), with excitation and emission slit widths of 5 nm and excitation wavelength at 510 nm. […]
All spectroscopic measurements were carried out in aqueous CH3CN medium at room temperature. […] Each fluorescence titration was repeated at least thrice until consistent values were obtained. […] The association constant (K) was calculated from absorbance studies by the linear Benesi-Hildebrand equation. […]

Compound | detection limit for Al^3+ ions [µM]
CCN(CC)c1ccc2c(c1)Oc1cc(N(CC)CC)ccc1C21c2ccccc2C(=O)N1/N=C/c1cc(Br)cc(OC)c1O [L2] | 47
CCN(CC)c1ccc2c(c1)Oc1cc(N(CC)CC)ccc1C21c2ccccc2C(=O)N1/N=C/c1c(OC)ccc2ccccc12 [L1] | 32
